Measured values reported in US20030130308A1, “Drugs for spinal anesthesia” (priority 2001, published 2003).
“Also recorded” adds a separate entry of the source. Structures can show the parent of a compound that is named as a salt.

Tests used:
Type in all cases: in vivo
rats [1] = assay: Mean arterial pressure and heart rate via carotid artery catheter after intrathecal injection; conditions: rat
Procedure: (§1) Rats were tested before 15 minutes through 240 minutes after intrathecal injection of 5 nmoles (in 10 μl) of 6-[2-(1(2)H-tetrazole-5-yl)ethyl]decahydroisoquinolone-3-carboxylic acid. Sensory function was tested at the hindpaw using withdrawal response to pinprick and withdrawal to pinch with a sharp forceps. Motor performance (ambulation, the placing reflex and Rotarod time), blood pressure and heart rate was also evaluated. Some tests were repeated the next day. Responses after 6-[2-(1(2)H-tetrazole-5-yl)ethyl]decahydroisoquinolone-3-carboxylic acid were compared to injection of 40 μl of bupivacaine, 0.75%. Pinprick responses at the forepaw, chest, abdomen, hindleg and hindpaw were also examined after intrathecal 6-[2-(1(2)H-tetrazole-5-yl)ethyl]decahydroisoquinolone-3-carboxylic acid.
For blood pressure measurement, the paratracheal region was shaved, prepared with povidone-iodine, and incised 1.5-2 cm longitudinally lateral to the midline. The carotid artery was isolated and cannulated with PE-50 tubing that had been stretched by exposing the distal end to heat. The catheter secured and tunneled subcutaneously to the posterior neck region. The skin was closed with 4-0 silk and the rat was allowed to recover for 2-3 days before experiments began.
The mean arterial pressure and heart rate were measured using the carotid artery catheter attached to a pressure transducer relayed to a polygraph and preamplifier (Grass, Quincy, Mass). Heart rate was intermittently measured by counting the arterial pulse wave for 30 seconds.
(§2) The dose and volume of drugs injected intrathecally were determined from the dose required to produce hindlimb sensory and motor loss in preliminary experiments. Bupivacaine HCl (0.75% in 8.25% dextrose for spinal injection) was purchased from Abbott Laboratories (Chicago, Ill.). The intrathecal injection volume was 40 μl. The compound was dissolved in 10% dextrose and water. The injection volume was 1 ul. All intrathecal drug injections were followed by a flush of 10 μl preservative-free saline.

rats [2] = assay: Overall sensory and motor blockade of the hindlimbs after intrathecal injection; conditions: rat
Procedure: as §1
(§3) Rats were anesthetized with halothane. The lumbar region was shaved, prepared with povidone-iodine, made kyphotic and incised 2 to 3 cm longitudinally in the midline at the level of the iliac crests. The space between the 5th and 6th lumbar vertebrae was punctured with 23G hypodermic needle and a 32G PU catheter (10 cm length, OD 0.0107 inches and ID 0.005 inches) reinforced with a Teflon coated stainless steel stylet (0.003 inches) was advanced through the needle cranially. The needle and the stylet were removed and the catheter withdrawn so that 6.5-7 cm extended outside of the lumbar masculature. The catheter was fixed to the fascia, sutured, inserted into an 8 cm length of PE-10 tubing and secured with glue covered with epoxy. The catheter was tunneled under the skin to the cervical region, flushed with saline and sealed with a cautery pen. The dead space of the catheter was 4.5 to 5 μl. The skin was closed and the rat was allowed to recover from anesthesia for 2-3 days.
as §2

rats [3] = assay: Withdrawal response to pinch with forceps at the hindpaw after intrathecal injection; conditions: rat
Procedure: as §1, §3
(§4) First, the withdrawal response to pinprick was tested on each hindpaw. A 5 mm long tip of a safety pin attached to a von Frey filament (520 mN) was applied once to the plantar aspect of each hindpaw. Either a withdrawal response or a reaction occurred (1=positive response) or no withdrawal (0=no response). The sum of the scores (0, 1 or 2) for each rat was recorded. If no response or reaction was elicited by pinprick, a serrated dissecting forceps was used to pinch the skin of the plantar region for 2-3 sec. Again, withdrawal or reaction was considered a positive response (score=1) and the absence of both a negative test (score=0). […] Because the response to pinch was quite vigorous and rats were subjected to repeated tests in a single day, only rats unresponsive to pinprick were tested for pinch. If pinprick evoked a response, pinch was designated as positive also. The sum of the scores after pinch (0, 1 or 2) was recorded.
as §2

rats [4] = assay: Withdrawal response to pinprick at the hindpaw after intrathecal injection; conditions: rat
Procedure: as §1, §3, §4, §2

rats [5] = assay: Rotarod performance after intrathecal injection; conditions: rat; for Rotarod Time: mean ± SD
Procedure: as §1, §3
Rats were trained over a two-day period. Training began by placing the rat on a Rotarod (Stoelting, Wood Dale, Ill.) that was fixed for three minutes. Then, three series of trials separated by 2-3 hours were performed. During each trial, the rat was placed on the Rotarod accelerating for the first 20 s then at a constant rate of approximately 5 rpm, until a 180 s cut off time. If the rat fell at any time during the initial trial, the trial was repeated. Each rat was allowed three attempts per trial. On the second day, the same procedure was repeated, though acceleration was sustained for 120 s to approximately 12 rpm, with a 150 second cut off time. On day 3, the test day, rats are again placed on the Rotarod and accelerated for 120 seconds to 12 rpm with the cutoff time of 150 seconds. Each rat was permitted 4 attempts at 15 minute intervals. Those successful in 2 of the 4 attempts continued in the protocol, and the average of the 4 attempts was considered the baseline (pre). […] Then the placing reflex was tested. Rats were placed on a table and the dorsum of either hindpaw was drawn across the edge of the table; this elicits a lifting of the paw onto the surface of the table (2=normal; 1=delay of 1-2 sec.; 0=more than 2 sec.). This test was performed 3 times for each hindlimb after each ambulation test. The sum of the three trials on both paws were recorded (1-12).
as §2

[6] = 5 nmoles intrathecal vs bupivacaine
[7] = 5 nmoles intrathecal, from 15 minutes
[8] = bupivacaine 0.75% 40 μl intrathecal
[9] = bupivacaine 0.75% 40 μl intrathecal, fifteen minutes after administration

With `O=C(O)C1CC2CC(CCc3nnn[nH]3)CCC2CN1` (stereo not shown) [LY293558, 6-[2-(1(2)H-tetrazole-5-yl)ethyl]decahydroisoquinolone-3-carboxylic acid] the “change in blood pressure” value (rats [1]; 5 nmoles intrathecal) was “No change; also recorded: did not change”, the “change in heart rate” value (rats [1]; 5 nmoles intrathecal) was “No change; also recorded: did not change” and the “effects compared with bupivacaine” value (rats [2]; 5 nmoles intrathecal vs bupivacaine 0.75% 40 μl) was “more pronounced and sustained than bupivacaine; also recorded: more pronounced and prolonged”. The “greater motor deficits than bupivacaine (P<0.05) in all tests of motor function, through” value (rats [2]; 5 nmoles intrathecal vs bupivacaine, from 30 minutes) was 3 h, the “sensory and motor blockade of the hindlimbs” value (rats [2]; 5 nmoles intrathecal) was “reversible, sustained sensory and motor blockade” and the “sensory and motor responses blocked through” value (rats [2]; 5 nmoles intrathecal) was 180 min. The “recovery of sensory and motor responses the following day” value (rats [2]; 5 nmoles intrathecal, following day) was “complete recovery”, the “greater inhibition of pinch than bupivacaine (P<0.05) through” value (rats [3]; [6]) was 4 h and the “all rats failed to respond to pinch through (P<0.05 vs Pre)” value (rats [3]; [7]) was 90 min. For the same compound, the “recovery of pinch response the next day” value (rats [3]; 5 nmoles intrathecal, next day) was “recovered fully”, the “greater inhibition of pinprick than bupivacaine (P<0.05) through” value (rats [4]; [6]) was 3 h and the “rats failed to respond to pin prick through (P<0.05 vs Pre)” value (rats [4]; [7]) was 2 h. For the same compound, the “recovery of pinprick response the next day” value (rats [4]; 5 nmoles intrathecal, next day) was “recovered fully”, the “Rotorod performance decreased through (P<0.05 vs Pre)” value (rats [5]; 5 nmoles intrathecal) was 4 h and the “recovery of Rotorod performance the next day” value (rats [5]; 5 nmoles intrathecal, next day) was “full recovery”. For the same compound, the “Rotarod Time” value (rats [5]; LY293558 5 nmoles IT, n=8, 15 min) was 3 ± 4 s, the “Rotarod Time” value (rats [5]; LY293558 5 nmoles IT, n=8, 240 min) was 115 ± 42 s and the “Rotarod Time” value (rats [5]; LY293558 5 nmoles IT, n=8, 24 hrs) was 149 ± 5 s. The “Rotarod Time” value (rats [5]; LY293558 5 nmoles IT, n=8, Pre (before drug injection)) was 144 ± 10 s.

For `CCCCN1CCCCC1C(=O)Nc1c(C)cccc1C` (stereo not shown) [Bupivacaine, Bupivacaine HCl], the “time by which blood pressure and heart rate changes resolved” value (rats [1]; [8]) was no more than 30 min, the “heart rate change vs Pre” value (rats [1]; [9]) was “increased” and the “mean arterial pressure change vs Pre” value (rats [1]; [9]) was “decreased”. The “sensory and motor responses” value (rats [2]; [8]) was “decreased”, the “time of full recovery of response to pinch” value (rats [3]; [8]) was 30 min and the “response to pinch vs Pre” value (rats [3]; bupivacaine 0.75% 40 μl intrathecal, 15 minutes after injection) was “reduced”. For the same compound, the “time at which all rats had recovered withdrawal to pinprick” value (rats [4]; [8]) was 60 min, the “withdrawal to pinprick vs Pre” value (rats [4]; bupivacaine 0.75% 40 μl intrathecal, 15 minutes after injection, not eliminated in all tests) was “reduced” and the “Rotarod Time” value (rats [5]; Bupivacaine 0.75% 40 μl IT, n=8, 15 min) was 5 ± 6 s. The “Rotarod Time” value (rats [5]; Bupivacaine 0.75% 40 μl IT, n=8, 30 min) was 49 ± 42 s, the “Rotarod Time” value (rats [5]; Bupivacaine 0.75% 40 μl IT, n=8, 60 min) was 135 ± 43 s and the “Rotarod Time” value (rats [5]; Bupivacaine 0.75% 40 μl IT, n=8, 90 min) was 136 ± 39 s. For the same compound, the “Rotarod Time” value (rats [5]; Bupivacaine 0.75% 40 μl IT, n=8, 120 min) was 137 ± 26 s, the “Rotarod Time” value (rats [5]; Bupivacaine 0.75% 40 μl IT, n=8, 180 min) was 142 ± 15 s and the “Rotarod Time” value (rats [5]; Bupivacaine 0.75% 40 μl IT, n=8, 240 min) was 149 ± 2 s. The “Rotarod Time” value (rats [5]; Bupivacaine 0.75% 40 μl IT, n=8, 24 hrs) was 150 ± 0 s, the “Rotarod Time” value (rats [5]; Bupivacaine 0.75% 40 μl IT, n=8, Pre (before drug injection)) was 146 ± 8 s and the “rotorod performance decreased for (P<0.05 vs Pre)” value (rats [5]; [8]) was 30 min.
